± gives the expanded uncertainty stated by the source.
Assay: xn = mol fraction of the nth substance listed
Details: Gas, Buoyancy - hydrostatic balance with magnetic suspension - one sinker

SMILES: [HH] [hydrogen] + C
- mass density (250.05 K, 1999 kPa, x2 = 0.9): 14.843 ± 0.047 kg/m3
- mass density (250.05 K, 8002 kPa, x2 = 0.9499): 76.259 ± 0.069 kg/m3
- mass density (250.05 K, 10007 kPa, x2 = 0.9499): 101.135 ± 0.074 kg/m3
- mass density (250.05 K, 11012 kPa, x2 = 0.9499): 113.948 ± 0.075 kg/m3
- mass density (250.05 K, 12006 kPa, x2 = 0.9): 113.812 ± 0.071 kg/m3
- mass density (250.05 K, 12009 kPa, x2 = 0.9499): 126.528 ± 0.076 kg/m3
- mass density (250.05 K, 13012 kPa, x2 = 0.9): 124.698 ± 0.072 kg/m3
- mass density (250.05 K, 13015 kPa, x2 = 0.9499): 138.84 ± 0.075 kg/m3
- mass density (250.05 K, 14014 kPa, x2 = 0.9): 135.178 ± 0.073 kg/m3
- mass density (250.05 K, 14017 kPa, x2 = 0.9499): 150.503 ± 0.073 kg/m3
- mass density (250.05 K, 15015 kPa, x2 = 0.9): 145.138 ± 0.073 kg/m3
- mass density (250.05 K, 15015 kPa, x2 = 0.9499): 161.379 ± 0.072 kg/m3
- mass density (250.05 K, 16007 kPa, x2 = 0.9499): 171.395 ± 0.07 kg/m3
- mass density (250.05 K, 16018 kPa, x2 = 0.9): 154.622 ± 0.072 kg/m3
- mass density (250.05 K, 17011 kPa, x2 = 0.9): 163.416 ± 0.072 kg/m3
- mass density (250.05 K, 17022 kPa, x2 = 0.9499): 180.83 ± 0.069 kg/m3
- mass density (250.05 K, 18018 kPa, x2 = 0.9): 171.725 ± 0.071 kg/m3
- mass density (250.05 K, 18020 kPa, x2 = 0.9499): 189.342 ± 0.068 kg/m3
- mass density (250.05 K, 18962 kPa, x2 = 0.9499): 196.737 ± 0.069 kg/m3
- mass density (250.05 K, 19023 kPa, x2 = 0.9): 179.463 ± 0.071 kg/m3
- mass density (250.05 K, 19940 kPa, x2 = 0.9): 186.044 ± 0.06 kg/m3
- mass density (260.03 K, 1002 kPa, x2 = 0.4997): 4.206 ± 0.032 kg/m3
- mass density (260.03 K, 1977 kPa, x2 = 0.4997): 8.33 ± 0.033 kg/m3
- mass density (260.03 K, 3002 kPa, x2 = 0.4997): 12.694 ± 0.035 kg/m3
- mass density (260.03 K, 4002 kPa, x2 = 0.4997): 16.974 ± 0.037 kg/m3
- mass density (260.03 K, 5000 kPa, x2 = 0.4997): 21.26 ± 0.04 kg/m3
- mass density (260.03 K, 6003 kPa, x2 = 0.4997): 25.579 ± 0.043 kg/m3
- mass density (260.03 K, 7000 kPa, x2 = 0.4997): 29.878 ± 0.047 kg/m3
- mass density (260.03 K, 8000 kPa, x2 = 0.4997): 34.185 ± 0.052 kg/m3
- mass density (260.03 K, 9003 kPa, x2 = 0.4997): 38.489 ± 0.057 kg/m3
- mass density (260.03 K, 10005 kPa, x2 = 0.4997): 42.775 ± 0.063 kg/m3
- mass density (260.03 K, 11002 kPa, x2 = 0.4997): 47.008 ± 0.069 kg/m3
- mass density (260.03 K, 12008 kPa, x2 = 0.4997): 51.246 ± 0.075 kg/m3
- mass density (260.03 K, 13002 kPa, x2 = 0.4997): 55.387 ± 0.082 kg/m3
- mass density (260.03 K, 14009 kPa, x2 = 0.4997): 59.544 ± 0.088 kg/m3
- mass density (260.03 K, 15005 kPa, x2 = 0.4997): 63.583 ± 0.094 kg/m3
- mass density (260.03 K, 16009 kPa, x2 = 0.4997): 67.621 ± 0.1 kg/m3
- mass density (260.03 K, 17009 kPa, x2 = 0.4997): 71.57 ± 0.1 kg/m3
- mass density (260.03 K, 18006 kPa, x2 = 0.4997): 75.418 ± 0.11 kg/m3
- mass density (260.03 K, 19113 kPa, x2 = 0.4997): 79.651 ± 0.11 kg/m3
- mass density (260.04 K, 999 kPa, x2 = 0.9499): 7.267 ± 0.045 kg/m3
- mass density (260.04 K, 1000 kPa, x2 = 0.9): 6.927 ± 0.043 kg/m3
- mass density (260.04 K, 1999 kPa, x2 = 0.9499): 14.926 ± 0.047 kg/m3
- mass density (260.04 K, 2000 kPa, x2 = 0.9): 14.169 ± 0.045 kg/m3
- mass density (260.04 K, 2999 kPa, x2 = 0.9499): 23.006 ± 0.049 kg/m3
- mass density (260.04 K, 3001 kPa, x2 = 0.9): 21.762 ± 0.047 kg/m3
- mass density (260.04 K, 3999 kPa, x2 = 0.9499): 31.515 ± 0.052 kg/m3
- mass density (260.04 K, 5000 kPa, x2 = 0.9499): 40.497 ± 0.054 kg/m3
- mass density (260.04 K, 5999 kPa, x2 = 0.9499): 49.941 ± 0.057 kg/m3
- mass density (260.04 K, 6001 kPa, x2 = 0.9): 46.626 ± 0.054 kg/m3
- mass density (260.04 K, 7001 kPa, x2 = 0.9): 55.622 ± 0.056 kg/m3
- mass density (260.04 K, 7002 kPa, x2 = 0.9499): 59.886 ± 0.06 kg/m3
- mass density (260.04 K, 8003 kPa, x2 = 0.9): 64.951 ± 0.058 kg/m3
- mass density (260.04 K, 8003 kPa, x2 = 0.9499): 70.258 ± 0.062 kg/m3
- mass density (260.04 K, 9004 kPa, x2 = 0.9): 74.538 ± 0.06 kg/m3
- mass density (260.04 K, 9006 kPa, x2 = 0.9499): 81.038 ± 0.064 kg/m3
- mass density (260.04 K, 10006 kPa, x2 = 0.9): 84.334 ± 0.062 kg/m3
- mass density (260.04 K, 10006 kPa, x2 = 0.9499): 92.073 ± 0.067 kg/m3
- mass density (260.04 K, 11008 kPa, x2 = 0.9): 94.232 ± 0.064 kg/m3
- mass density (260.04 K, 11011 kPa, x2 = 0.9499): 103.316 ± 0.068 kg/m3
- mass density (260.04 K, 12013 kPa, x2 = 0.9499): 114.514 ± 0.069 kg/m3
- mass density (260.04 K, 13017 kPa, x2 = 0.9499): 125.55 ± 0.069 kg/m3
- mass density (260.04 K, 14016 kPa, x2 = 0.9499): 136.214 ± 0.069 kg/m3
- mass density (260.04 K, 15018 kPa, x2 = 0.9499): 146.448 ± 0.068 kg/m3
- mass density (260.04 K, 16023 kPa, x2 = 0.9499): 156.169 ± 0.067 kg/m3
- mass density (260.04 K, 17019 kPa, x2 = 0.9499): 165.22 ± 0.066 kg/m3
- mass density (260.04 K, 18026 kPa, x2 = 0.9499): 173.779 ± 0.066 kg/m3
- mass density (260.04 K, 18756 kPa, x2 = 0.9499): 179.616 ± 0.069 kg/m3
- mass density (260.05 K, 4000 kPa, x2 = 0.9): 29.682 ± 0.049 kg/m3
- mass density (260.05 K, 5000 kPa, x2 = 0.9): 37.974 ± 0.051 kg/m3
- mass density (260.05 K, 12009 kPa, x2 = 0.9): 104.112 ± 0.065 kg/m3
- mass density (260.05 K, 13009 kPa, x2 = 0.9): 113.883 ± 0.066 kg/m3
- mass density (260.05 K, 14013 kPa, x2 = 0.9): 123.483 ± 0.066 kg/m3
- mass density (260.05 K, 15017 kPa, x2 = 0.9): 132.774 ± 0.067 kg/m3
- mass density (260.05 K, 16016 kPa, x2 = 0.9): 141.654 ± 0.067 kg/m3
- mass density (260.05 K, 17013 kPa, x2 = 0.9): 150.096 ± 0.068 kg/m3
- mass density (260.05 K, 17614 kPa, x2 = 0.9): 154.98 ± 0.072 kg/m3
- mass density (275 K, 1001 kPa, x2 = 0.4997): 3.964 ± 0.031 kg/m3
- mass density (275 K, 2001 kPa, x2 = 0.4997): 7.947 ± 0.032 kg/m3
- mass density (275 K, 3002 kPa, x2 = 0.4997): 11.95 ± 0.034 kg/m3
- mass density (275 K, 4001 kPa, x2 = 0.4997): 15.957 ± 0.035 kg/m3
- mass density (275 K, 5001 kPa, x2 = 0.4997): 19.969 ± 0.037 kg/m3
- mass density (275 K, 6001 kPa, x2 = 0.4997): 23.987 ± 0.041 kg/m3
- mass density (275 K, 7001 kPa, x2 = 0.4997): 27.997 ± 0.044 kg/m3
- mass density (275 K, 8001 kPa, x2 = 0.4997): 31.996 ± 0.048 kg/m3
- mass density (275 K, 9003 kPa, x2 = 0.4997): 35.989 ± 0.052 kg/m3
- mass density (275 K, 10000 kPa, x2 = 0.4997): 39.943 ± 0.057 kg/m3
- mass density (275 K, 12001 kPa, x2 = 0.4997): 47.79 ± 0.066 kg/m3
- mass density (275 K, 13004 kPa, x2 = 0.4997): 51.668 ± 0.071 kg/m3
- mass density (275.01 K, 999 kPa, x2 = 0.9499): 6.842 ± 0.043 kg/m3
- mass density (275.01 K, 1000 kPa, x2 = 0.9): 6.522 ± 0.041 kg/m3
- mass density (275.01 K, 1999 kPa, x2 = 0.9499): 13.98 ± 0.044 kg/m3
- mass density (275.01 K, 2001 kPa, x2 = 0.9): 13.293 ± 0.043 kg/m3
- mass density (275.01 K, 2997 kPa, x2 = 0.9499): 21.412 ± 0.046 kg/m3
- mass density (275.01 K, 3001 kPa, x2 = 0.9): 20.304 ± 0.044 kg/m3
- mass density (275.01 K, 4001 kPa, x2 = 0.9): 27.568 ± 0.046 kg/m3
- mass density (275.01 K, 4002 kPa, x2 = 0.9499): 29.206 ± 0.048 kg/m3
- mass density (275.01 K, 5002 kPa, x2 = 0.9499): 37.281 ± 0.05 kg/m3
